What was measured:
[1] = target: T1, THRβ (Homo sapiens, UniProt P10828); assay: THRβ binding assay (time-resolved FRET coactivator peptide recruitment); type: biochemical; settings: THRβ-LBD/RXRα, SRC2-2 coactivator peptide recruitment, 4 hours at room temperature
T1 construct: RXRα and THRβ-LBD Eu-anti-GST antibody with GST tag
Experimental: Experimental methods: In vitro analysis of the agonistic effect of compounds on THRβ was performed using time-resolved fluorescence resonance energy transfer coactivator peptide recruitment assays. The assay used biotin-SRC2-2 coactivator peptide, streptavidin-d2, RXRα and THRβ-LBD Eu-anti-GST antibody with GST tag. Eu-anti-GST antibody indirectly labeled THRβ-LBD by binding to the GST tag. Streptavidin-d2 indirectly labeled the SRC2-2 coactivator peptide by binding to the biotin tag. In the presence of RXRα, THRβ-LBD can form heterodimer THRβ-LBD/RXRα with it. […] According to the effect of different concentrations of the compound on the activity of THRβ, the agonistic ability of the compound can be evaluated.
The detailed procedure is as follows: • a. 100× reference compound or compound was prepared with DMSO, and equally diluted by 1:3. • b. 100× gradiently diluted reference compound or compound was diluted with 1× reaction buffer to 4×, which was then added to an assay plate. • c. A mixed solution of 4× THRβ-LBD and 4× RXRα was prepared with 1× reaction buffer, and added to the assay plate. • d. A mixed solution of 2× biotin-SRC2-2, 2× Eu-anti-GST, and 2× streptavidin-d2 was prepared with 1× reaction buffer, and added to the assay plate. • e. The assay plate was centrifuged at 1000 rpm for 1 min, and incubated at room temperature in the dark for 4 hours. • f.

[2] = target: T2, THRα (Homo sapiens, UniProt P10827); assay: THRα binding assay (as the THRβ assay, THRβ replaced with THRα); type: biochemical; settings: for EC50: THRα in place of THRβ; for THRα/β selectivity (fold): ratio of THRα EC50 to THRβ EC50
T2 construct: GST
T2 sequence (P10827 1-410 isoform P10827-2, other chains not shown): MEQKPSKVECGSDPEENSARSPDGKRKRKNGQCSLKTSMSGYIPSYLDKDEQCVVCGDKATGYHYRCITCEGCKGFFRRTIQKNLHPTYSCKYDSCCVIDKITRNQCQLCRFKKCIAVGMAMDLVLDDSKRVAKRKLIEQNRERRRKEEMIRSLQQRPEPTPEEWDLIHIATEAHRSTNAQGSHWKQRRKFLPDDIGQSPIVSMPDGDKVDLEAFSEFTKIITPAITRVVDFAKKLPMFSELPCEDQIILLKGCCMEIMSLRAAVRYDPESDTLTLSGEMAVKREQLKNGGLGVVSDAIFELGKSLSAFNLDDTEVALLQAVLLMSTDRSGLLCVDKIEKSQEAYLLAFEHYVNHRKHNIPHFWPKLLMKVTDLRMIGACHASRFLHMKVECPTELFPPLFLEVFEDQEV
T2 sequence (P19793 whole entry partner, other chains not shown): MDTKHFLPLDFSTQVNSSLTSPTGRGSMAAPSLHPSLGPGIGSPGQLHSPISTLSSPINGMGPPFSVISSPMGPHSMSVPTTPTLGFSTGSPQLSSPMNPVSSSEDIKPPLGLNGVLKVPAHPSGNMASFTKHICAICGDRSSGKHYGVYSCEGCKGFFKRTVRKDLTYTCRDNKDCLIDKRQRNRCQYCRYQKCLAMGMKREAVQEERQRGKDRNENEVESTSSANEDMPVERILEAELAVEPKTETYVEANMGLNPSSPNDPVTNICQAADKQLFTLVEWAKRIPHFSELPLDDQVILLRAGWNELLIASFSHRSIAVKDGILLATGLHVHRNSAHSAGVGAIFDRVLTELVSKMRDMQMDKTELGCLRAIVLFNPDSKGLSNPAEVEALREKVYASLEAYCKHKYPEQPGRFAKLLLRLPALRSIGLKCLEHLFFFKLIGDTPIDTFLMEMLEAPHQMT

T1 sequence (P10828 217-461 limits assumed, other chains not shown): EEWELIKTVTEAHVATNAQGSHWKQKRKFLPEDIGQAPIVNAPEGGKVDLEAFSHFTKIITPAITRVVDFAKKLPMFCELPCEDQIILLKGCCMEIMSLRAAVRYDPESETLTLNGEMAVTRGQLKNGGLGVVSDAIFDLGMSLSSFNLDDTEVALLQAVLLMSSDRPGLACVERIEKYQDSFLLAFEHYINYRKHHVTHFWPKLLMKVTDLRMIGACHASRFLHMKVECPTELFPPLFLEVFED
T1 sequence (P19793 whole entry partner, other chains not shown, the tested form may be a part): as the sequence (P19793 whole entry partner, other chains not shown) above

SMILES | EC50 [1] [nM] | EC50 [2] [nM] | THRα/β selectivity (fold) [2] [fold]
N#Cc1nn(-c2cc(Cl)c(Oc3ccc(=O)[nH]c3)c(Cl)c2)c(=O)[nH]c1=O [Example 2, 2-(3,5-Dichloro-4-((6-oxo-1,6-dihydropyridin-3-yl)oxy)phenyl)-3,5-dioxo-2,3,4,5-tetra hydro-1H-1,2,4-triazine-6-carbonitrile] | 3650 |  | 
CC(C)Cn1cc(Oc2c(Cl)cc(-n3nc(C#N)c(=O)[nH]c3=O)cc2Cl)ccc1=O [Example 6, 2-(3,5-Dichloro-4-[(1-(2-methylpropyl)-6-oxo-1,6-dihydropyridin-3-yl)oxy]phenyl)-3,5-dioxo-2,3,4,5-tetrahydro-1,2,4-triazine-6-carbonitrile] | 100 | 2030 | 20.3
CCC(CC)n1cc(Oc2c(Cl)cc(-n3nc(C#N)c(=O)[nH]c3=O)cc2Cl)ccc1=O [Example 7, 2-(3,5-dichloro-4-((6-oxo-1-(pentan-3-yl)-1,6-dihydropyridin-3-yl)oxy)phenyl)-3,5-dioxo-2,3,4,5-tetrahydro-1,2,4-triazine-6-carbonitrile] | 40 |  | 
COCCn1cc(Oc2c(Cl)cc(-n3nc(C#N)c(=O)[nH]c3=O)cc2Cl)ccc1=O [Example 8, 2-(3,5-Dichloro-4-((1-(2-methoxyethyl)-6-oxo-1,6-dihydropyridin-3-yl)oxy)phenyl) -3,5-dioxo-2,3,4,5-tetrahydro-1,2,4-triazine-6-carbonitrile] | 431 |  | 
N#Cc1nn(-c2cc(Cl)c(Oc3ccc(=O)n(C4=CCCCC4)c3)c(Cl)c2)c(=O)[nH]c1=O [Example 13, 2-(3,5-Dichloro-4-((1-(cyclohex-1-en-1-yl)-6-oxo-1,6-dihydropyridin-3-yl)oxy)phenyl) -3,5-dioxo-2,3,4,5-tetrahydro-1,2,4-triazine-6-carbonitrile] | 22 |  | 
Cc1cc(Oc2c(Cl)cc(-n3nc(C#N)c(=O)[nH]c3=O)cc2Cl)cn(C2CC2)c1=O [Example 18, 2-(3,5-Dichloro-4-((1-cyclopropyl-5-methyl-6-oxo-1,6-dihydropyridin-3-yl)oxy)phenyl) -3,5-dioxo-2,3,4,5-tetrahydro-1,2,4-triazine-6-carbonitrile] | 1430 |  | 
CC(C)n1cc(Oc2c(Cl)cc(-n3nc(C#N)c(=O)[nH]c3=O)cc2Cl)cc(C2CC2)c1=O [Example 19, 2-(3,5-Dichloro-4-((5-cyclopropyl-1-isopropyl-6-oxo-1,6-dihydropyridin-3-yl)oxy)phenyl)-3,5-dioxo-2,3,4,5-tetrahydro-1,2,4-triazine-6-carbonitrile] | 1340 |  | 
N#Cc1nn(-c2cc(Cl)c(Oc3ccc(=O)n(-c4cccc(C(F)(F)F)c4)c3)c(Cl)c2)c(=O)[nH]c1=O [Example 23, 2-(3,5-dichloro-4-((6-oxo-1-(3-(trifluoromethyl)phenyl)-1,6-dihydropyridin-3-yl)oxy)phenyl)-3,5-dioxo-2,3,4,5-tetrahydro-1,2,4-triazine-6-carbonitrile] | 26 | 2690 | 103.3
N#Cc1nn(-c2cc(Cl)c(Oc3ccc(=O)n(-c4cccc(OC(F)(F)F)c4)c3)c(Cl)c2)c(=O)[nH]c1=O [Example 24, 2-(3,5-Dichloro-4-((6-oxo-1-(3-(trifluoromethoxy)phenyl)-1,6-dihydropyridin-3-yl)oxy)phenyl)-3,5-dioxo-2,3,4,5-tetrahydro-1,2,4-triazine-6-carbonitrile] | 23 | 810 | 35.2
Cc1cccc(-n2cc(Oc3c(Cl)cc(-n4nc(C#N)c(=O)[nH]c4=O)cc3Cl)ccc2=O)c1 [Example 26, 2-(3,5-Dichloro-4-((6-oxo-1-(3-methylphenyl)-1,6-dihydropyridin-3-yl)oxy)phenyl)-3,5-dioxo-2,3,4,5-tetrahydro-1,2,4-triazine-6-carbonitrile] | 60 |  | 
Cc1ccccc1-n1cc(Oc2c(Cl)cc(-n3nc(C#N)c(=O)[nH]c3=O)cc2Cl)ccc1=O [Example 27, 2-(3,5-Dichloro-4-((6-oxo-1-(o-methylphenyl)-1,6-dihydropyridin-3-yl)oxy)phenyl)-3,5-dioxo-1,2,3,4-4,5-tetrahydro-1,2,4-triazine-6-carbonitrile] | 136 |  | 
N#Cc1nn(-c2cc(Cl)c(Oc3ccc(=O)n(-c4cc(F)cc(F)c4)c3)c(Cl)c2)c(=O)[nH]c1=O [Example 29, 2-(3,5-Dichloro-4-((1-(3,5-difluorophenyl)-6-oxo-1,6-dihydropyridin-3-yl)oxy)phenyl) -3,5-dioxo-2,3,4,5-tetrahydro-1,2,4-triazine-6-carbonitrile] | 297 |  | 
Cc1cc(C)cc(-n2cc(Oc3c(Cl)cc(-n4nc(C#N)c(=O)[nH]c4=O)cc3Cl)ccc2=O)c1 [Example 30, 2-(3,5-dichloro-4-((1-(3,5-dimethylphenyl)-6-oxo-1,6-dihydropyridin-3-yl)oxy)phenyl)-3,5-dioxo-2,3,4,5-tetrahydro-1,2,4-triazine-6-carbonitrile] | 150 |  | 
N#Cc1nn(-c2cc(Cl)c(Oc3ccc(=O)n(-c4cccc(C5CC5)c4)c3)c(Cl)c2)c(=O)[nH]c1=O [Example 31, 2-(3,5-dichloro-4-((1-(3-cyclopropylphenyl)-6-oxo-1,6-dihydropyridin-3-yl)oxy)phenyl)-3,5-dioxo-2,3,4,5-tetrahydro-1,2,4-triazine-6-carbonitrile] | 81 |  | 
N#Cc1nn(-c2cc(Cl)c(Oc3ccc(=O)n(-c4ccsc4)c3)c(Cl)c2)c(=O)[nH]c1=O [Example 32, 2-(3,5-Dichloro-4-((6-oxo-1-(thiophen-3-yl)-1,6-dihydropyridin-3-yl)oxy)phenyl)-3,5-dioxo-2,3,4,5-tetrahydro-1,2,4-triazine-6-carbonitrile] | 100 |  | 
N#Cc1nn(-c2cc(Cl)c(Oc3ccc(=O)n(-c4cccs4)c3)c(Cl)c2)c(=O)[nH]c1=O [Example 33, 2-(3,5-Dichloro-4-((6-oxo-1-(thien-2-yl)-1,6-dihydropyridin-3-yl)oxy)phenyl)-3,5-diox o-2,3,4,5-tetrahydro-1,2,4-triazine-6-carbonitrile] | 119 |  | 
N#Cc1nn(-c2cc(Cl)c(Oc3ccc(=O)n(-c4nccs4)c3)c(Cl)c2)c(=O)[nH]c1=O [Example 34, 2-(3,5-dichloro-4-((6-oxo-1-(thiazol-2-yl)-1,6-dihydropyridin-3-yl)oxy)phenyl)-3,5-dioxo-2,3,4,5-tetrahydro-1,2,4-triazine-6-carbonitrile] | 435 |  | 
O=c1[nH]c(=O)n(-c2cc(Cl)c(Oc3ccc(=O)n(-c4cccs4)c3)c(Cl)c2)nc1CF [Example 43, 2-(3,5-Dichloro-4-((6-oxo-1-(thiophen-2-yl)-1,6-dihydropyridin-3-yl)oxy)phenyl)-6-(fluoromethyl)-1,2,4-triazine-3,5(2H, 4H)-dione] | 8 |  | 
CC(C)n1cc(Oc2c(Cl)cc(-n3nc(CF)c(=O)[nH]c3=O)cc2Cl)ccc1=O [Example 44, 2-(3,5-Dichloro-4-((1-isopropyl-6-oxo-1,6-dihydropyridin-3-yl)oxy)phenyl)-6-(fluoromethyl)-1,2,4-triazine-3,5(2H, 4H)-dione] | 3 |  | 
COCCn1cc(Oc2c(Cl)cc(-n3nc(CF)c(=O)[nH]c3=O)cc2Cl)ccc1=O [Example 45, 2-(3,5-Dichloro-4-((1-(2-methoxyethyl)-6-oxo-1,6-dihydropyridin-3-yl)oxy)phenyl)-6-(fluoromethyl)-1,2,4-triazine-3,5(2H, 4H)-dione] | 32 |  | 

From patent US20240109863A1, “2-PYRIDONE DERIVATIVE, AND PREPARATION METHOD THEREFOR AND PHARMACEUTICAL APPLICATION THEREOF” (KPC PHARMACEUTICALS, INC, priority 2020, published 2024)
